Reference: US20230097157A1, “Bicyclic Pyridin-2-one and pyrimidin-4-one Derivatives Useful As a Factor XIa Inhibitors” (Janssen Pharmaceutica NV, priority 2021, published 2023)
Read-outs that look alike come from different tables or passages of the source. Values belong to the compound of their own block, whether it stands above or below them.

Key:
[1] = target: Factor XIa (Homo sapiens, UniProt P03951); experiment: Factor XIa inhibition assay (FLINT) utilizing a fluorophore-quencher pair peptide substrate 5Fam-[…]-K5Tamra; type: biochemical; details: kinetic (KIN) reads, read-out: FXIa KIN Inh IC50
Description: Biological Example 1: Factor XIa Inhibition Assay Utilizing a Fluorophore-Quencher Pair Peptide Substrate A fluorescence intensity (FLINT) based assay was used to monitor inhibition of Factor XIa. The peptide substrate, 5Fam-[…]-K5Tamra (purchased from New England Peptide) was chosen based on the FXI sequence. Conversion of zymogen FXI to its activated form, FXIa, occurs by proteolytic cleavage by […] at two sites, Arg146 and Arg180. The custom peptide used in this assay was based on the Arg146 cleavage site of FXI. The peptide substrate was designed with a fluorophore-quencher pair, where the fluorescence is quenched until FXIa cleaves the 8-mer peptide after the Arg residue.
The Factor XIa FLINT assay was used with the following 5Fam-[…]-K5Tamra assay buffer: 50 mM Tris, pH 7.5, 100 mM NaCl, 5 mM CaCl2, 0.1 mg/mL BSA, 0.03% CHAPS. Assay buffer was prepared by mixing all ingredients fresh. 5Fam-[…]-K5Tamra peptide substrate was first prepared at 10 mM in 100% DMSO, then diluted to 3 mM in 100% DMSO. Assay buffer was then added directly to the 3 mM stock of substrate to prepare the 30 μM 2× working concentration (15 μM final concentration). The 2× Factor XIa stock solution was prepared by diluting 6.562 μM stock in 1× assay buffer for a […].
Test compound(s) were run in an 11-point, 3-fold serial dilution with a final top compound concentration of 100 nM. Final DMSO in assay was 2%. FXIa was preincubated with compound for 30-minutes and then substrate was added to initiate the reaction. The assay was run with kinetic (KIN) reads at 5 min intervals over 30 minutes. […] More specifically, the assay was run as follows: • 100 nL of 0.01 mM test compound was dispensed into black 384-well non-binding Greiner BioOne 784900 plate for 0.1 μM final concentration; • 5 μL of 1× assay buffer was dispensed to column 24 (low control) and 5 μL 2× Factor XIa solution was dispensed to columns 1-23 (column 23 high control); • the plate was centrifuged with a “cover” plate at 500 rpm for 1 min • the plate was pre-incubated for 30 minutes at room temperature with plate covered; • 5 μL of 2×5Fam-[…]-K5Tamra peptide substrate was dispensed into the entire plate, columns 1-24; • the plate was centrifuged with a “cover” plate at 500 rpm for 1 min; • the plate was read monitoring fluorescence intensity on the BMG PHERAStar at room temperature, using fluorescence module 485 nm/520 nm.
(§1) Percent inhibition (IC50) curves were generated per compound tested, and data was analyzed using a 4-parameter logistic fit using GeneData Screener. The relative fluorescence unit (RFU) values were normalized to percent inhibition using the following equation:
% inhibition=((HC−LC)−(compound−LC)/(HC−LC))*100 where LC−low control=mean signal of no Factor XIa or 100% inhibition of Factor XIa; HC−high control=mean signal of Factor XIa+5Fam-[…]-K5Tamra peptide substrate with DMSO only.
(§2) An 11-point dose response curve for the test compound(s) was generated using GENDATA to determine IC50 value based on the following equation:
Y=Bottom+(Top−Bottom)/(1+10^((log IC50−X)*HillSlope)) where Y is the % inhibition in the presence of X inhibitor concentration, Top=high control=mean signal of Factor XIa+5Fam-[…]-K5Tamra peptide substrate with DMSO only; Bottom=low control−mean signal of no Factor XIa or 100% inhibition of Factor XIa; HillSlope−Hill coefficient; and IC50=concentration of compound with 50% inhibition in relation to top/high control.

[2] = target: human plasma kallikrein (Homo sapiens, UniProt P03952); experiment: Kallikrein inhibition assay (FLINT) utilizing a quenched AMC peptide substrate Z-Gly-Pro-Arg-AMC; type: biochemical; details: kinetic (KIN) reads, read-out: Kallikrein KIN Inh IC50
Description: Biological Example 2: Kallikrein Inhibition Assay Utilizing a Quenched AMC Peptide Substrate A fluorescence intensity (FLINT) based assay was used to monitor inhibition of human plasma kallikrein. The peptide substrate, Z-Gly-Pro-Arg-AMC (Purchased from Bachem; Catalog #I-1150) was chosen based on its relatively low KM for kallikrein which enables running the assay at lower substrate concentrations to control background fluorescence.
The Kallikrein FLINT assay was used with the following Z-Gly-Pro-Arg-AMC assay buffer: 50 mM Tris, pH 7.5, 100 mM NaCl, 5 mM CaCl2, 0.1 mg/mL BSA, 0.03% CHAPS. Assay buffer was prepared by mixing all ingredients fresh. 2× Z-Gly-Pro-Arg-AMC peptide substrate was prepared by diluting 10 mM stock into 1× assay buffer for a 100 μM working concentration (50 μM final concentration). The 2× kallikrein stock solution was prepared by diluting 14.76 μM stock in 1× assay buffer for a 4 nM working stock solution (2 nM final concentration).
Test compound(s) were run in an 11-point, 3-fold serial dilution with a final top compound concentration of 1 μM. Final DMSO in assay was 2%. Plasma kallikrein was pre-incubated for 30-minute with compound and then 50 μM substrate was added to initiate the reaction. The assay was run with kinetic (KIN) reads at 5 min intervals over 30 minutes. The time course was linear using 2 nM kallikrein greater than 30 minutes. More specifically, the assay was run as follows: • 100 nL of 0.1 mM test compound was dispensed into black 384-well non-binding Greiner BioOne 784900 plate for 1 μM final concentration; • 5 μL of 1× assay buffer was dispensed to columns 24 (low control) and 5 μL 2× human kallikrein enzyme solution was dispensed to columns 1-23 (column 23 high control); • the plate was centrifuged with a “cover” plate at 500 rpm for 1 min • the plate was pre-incubated for 30 minutes at room temperature with plate covered; • 5 μL of 2× Z-Gly-Pro-Arg-AMC peptide substrate was dispensed into the entire plate, columns 1-24; • the plate was centrifuged with a “cover” plate at 500 rpm for 1 min; • the plate was read monitoring fluorescence intensity on the BMG PHERAStar at room temperature, using fluorescence module 340 nm/440 nm.
as §1
% inhibition=((HC−LC)−(compound−LC)/(HC−LC))*100 where LC—low control=mean signal of […] or 100% inhibition of human kallikrein enzyme; HC—high control=mean signal of […]+Z-Gly-Pro-Arg-AMC peptide substrate with DMSO only.
as §2
Y=Bottom+(Top−Bottom)/(1+10^((log IC50−X)*HillSlope)) where Y is the % inhibition in the presence of X inhibitor concentration, Top=high control=mean signal of human kallikrein enzyme+Z-Gly-Pro-Arg-AMC peptide substrate with DMSO only; Bottom=low control−mean signal of no human kallikrein enzyme or 100% inhibition of human kallikrein enzyme; HillSlope−Hill coefficient; and IC50=concentration of compound with 50% inhibition in relation to top/high control.

human plasma kallikrein, sequence (P03952 391-638 limits assumed): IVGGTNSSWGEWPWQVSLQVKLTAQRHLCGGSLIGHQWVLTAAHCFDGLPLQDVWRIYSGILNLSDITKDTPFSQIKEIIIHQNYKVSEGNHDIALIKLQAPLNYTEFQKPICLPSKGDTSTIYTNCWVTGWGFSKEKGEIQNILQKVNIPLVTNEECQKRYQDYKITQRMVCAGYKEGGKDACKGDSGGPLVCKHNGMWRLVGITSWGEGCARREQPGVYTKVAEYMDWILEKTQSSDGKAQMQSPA
human plasma kallikrein, sequence (P03952 20-390 partner limits assumed): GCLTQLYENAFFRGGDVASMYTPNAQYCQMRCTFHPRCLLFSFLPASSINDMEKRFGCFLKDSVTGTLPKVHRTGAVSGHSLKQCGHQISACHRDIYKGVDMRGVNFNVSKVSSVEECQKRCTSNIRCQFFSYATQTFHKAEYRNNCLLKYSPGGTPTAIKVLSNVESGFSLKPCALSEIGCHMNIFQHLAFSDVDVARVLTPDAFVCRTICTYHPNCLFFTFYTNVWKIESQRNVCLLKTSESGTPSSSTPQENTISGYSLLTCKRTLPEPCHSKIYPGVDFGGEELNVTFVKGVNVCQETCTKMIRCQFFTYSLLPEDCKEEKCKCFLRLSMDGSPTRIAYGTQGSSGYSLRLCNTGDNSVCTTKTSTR
Factor XIa, sequence (P03951 388-625 limits assumed): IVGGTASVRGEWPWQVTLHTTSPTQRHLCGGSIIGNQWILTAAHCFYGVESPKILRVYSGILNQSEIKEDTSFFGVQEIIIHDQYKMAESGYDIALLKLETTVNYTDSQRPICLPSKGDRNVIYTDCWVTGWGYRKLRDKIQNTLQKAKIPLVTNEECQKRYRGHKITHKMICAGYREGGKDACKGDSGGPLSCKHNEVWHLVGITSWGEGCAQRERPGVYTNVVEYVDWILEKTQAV
Factor XIa, sequence (P03951 19-387 partner limits assumed): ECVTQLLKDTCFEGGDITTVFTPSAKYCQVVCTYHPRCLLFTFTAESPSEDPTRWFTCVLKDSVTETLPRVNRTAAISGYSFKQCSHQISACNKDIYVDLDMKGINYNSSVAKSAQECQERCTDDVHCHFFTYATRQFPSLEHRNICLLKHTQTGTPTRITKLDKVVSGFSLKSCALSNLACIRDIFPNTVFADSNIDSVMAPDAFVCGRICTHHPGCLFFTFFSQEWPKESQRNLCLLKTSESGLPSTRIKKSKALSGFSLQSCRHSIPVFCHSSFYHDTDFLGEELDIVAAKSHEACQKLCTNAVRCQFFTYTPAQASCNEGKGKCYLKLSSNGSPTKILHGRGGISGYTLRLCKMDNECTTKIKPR

IC50 ([1]; values in nM): 5.3 nM
IC50 ([2]; values in nM): 71.7 nM
SMILES: Cc1nc(N)cnc1-c1cnc([C@@H]2CC(C)c3nc(-c4c(-n5cnnn5)ccc(Cl)c4F)cc(=O)n32)[nH]1 (stereo partly drawn) [Example 95, (6S)-6-(5-(5-Amino-3-methylpyrazin-2-yl)-1H-imidazol-2-yl)-2-(3-chloro-2-fluoro-6-(1H-tetrazol-1-yl)phenyl)-8-methyl-7,8-dihydropyrrolo[1,2-a]pyrimidin-4(6H)-one]

IC50 ([1]; values in nM): 283 nM
IC50 ([2]; values in nM): 747 nM
SMILES: Cc1nc(N)c(F)cc1-c1cnc([C@H]2C[C@@H](C)c3nc(-c4c(-n5cnnn5)ccc(Cl)c4F)cc(=O)n32)[nH]1 (stereo in doubt) [Example 128, (6*R,8*R)-6-(5-(6-Amino-5-fluoro-2-methylpyridin-3-yl)-1H-imidazol-2-yl)-2-(3-chloro-2-fluoro-6-(1H-tetrazol-1-yl)phenyl)-8-methyl-7,8-dihydropyrrolo[1,2-a]pyrimidin-4(6H)-one]

IC50 ([1]; values in nM): 0.6 nM
IC50 ([2]; values in nM): 3.3 nM
SMILES: [2H]C([2H])([2H])OC(=O)Nc1ccc(-c2cnc(C3CC4(CC4)c4nc(-c5c(-n6cnnn6)ccc(Cl)c5F)cc(=O)n43)[nH]2)cc1 (single isomer, unassigned) [Example 72, Methyl-d3 (S*)-(4-(2-(2′-(3-Chloro-2-fluoro-6-(1H-tetrazol-1-yl)phenyl)-4′-oxo-6′,7′-dihydro-4′H-spiro[cyclopropane-1,8′-pyrrolo[1,2-a]pyrimidin]-6′-yl)-1H-imidazol-5-yl)phenyl)carbamate]

IC50 ([1]; values in nM): 1.2 nM
IC50 ([2]; values in nM): 12 nM
SMILES: C[C@@H]1C[C@H](c2nc(-c3ncc(N)nc3Cl)c[nH]2)n2c1nc(-c1c(-n3cnnn3)ccc(Cl)c1F)cc2=O (single isomer, unassigned) [Example 94, (6*R,8R)-6-(4-(5-Amino-3-chloropyrazin-2-yl)-1H-imidazol-2-yl)-2-(3-chloro-2-fluoro-6-(1H-tetrazol-1-yl)phenyl)-8-methyl-7,8-dihydropyrrolo[1,2-a]pyrimidin-4(6H)-one]

IC50 ([1]; unit μM): > 10000 nM
IC50 ([2]; unit μM): > 10000 nM
SMILES: C[C@@H]1C[C@H](c2ncc(-c3cnns3)[nH]2)n2c1nc(-c1c(-n3cnnn3)ccc(Cl)c1F)cc2=O (relative stereo) [Example 105, (6*R,8*R)-6-(5-(1,2,3-Thiadiazol-5-yl)-1H-imidazol-2-yl)-2-(3-chloro-2-fluoro-6-(1H-tetrazol-1-yl)phenyl)-8-methyl-7,8-dihydropyrrolo[1,2-a]pyrimidin-4(6H)-one]

IC50 ([1]; values in nM): 22.1 nM
IC50 ([2]; values in nM): 54.8 nM
SMILES: O=c1cc(-c2c(-n3cnnn3)ccc(Cl)c2F)nc2n1[C@H](c1nc(-c3ccnc(OCC(O)C(F)(F)F)c3F)c[nH]1)CC21CC1 (single isomer, unassigned) [Example 73, (S)-2′-(3-chloro-2-fluoro-6-(1H-tetrazol-1-yl)phenyl)-6′-(4-(3-fluoro-2-((S*)-3,3,3-trifluoro-2-hydroxypropoxy)pyridin-4-yl)-1H-imidazol-2-yl)-6′,7′-dihydro-4′H-spiro[cyclopropane-1,8′-pyrrolo[1,2-a]pyrimidin]-4′-one]

More lines, now with the values behind:

SMILES: C[C@@H]1CC(c2ncc(-c3cnc(N)c(F)c3)[nH]2)n2c1cc(-c1c(-n3cnnn3)ccc(Cl)c1F)cc2=O (stereo in doubt) [Example 60, (1*R)-3-(5-(6-Amino-5-fluoropyridin-3-yl)-1H-imidazol-2-yl)-7-(3-chloro-2-fluoro-6-(1H-tetrazol-1-yl)phenyl)-1-methyl-2,3-dihydroindolizin-5(1H)-one]
IC50 ([1]; values in nM): 47.8 nM
IC50 ([2]; values in nM): 185 nM

SMILES: C[C@H]1C[C@@H](c2ncc(-c3ccc4nn(C)cc4c3)[nH]2)n2c1cc(-c1c(-n3cnnn3)ccc(Cl)c1F)cc2=O (stereo in doubt) [Example 46, (1*S,3*S)-7-(3-Chloro-2-fluoro-6-(1H-tetrazol-1-yl)phenyl)-1-methyl-3-(5-(2-methyl-2H-indazol-5-yl)-1H-imidazol-2-yl)-2,3-dihydroindolizin-5(1H)-one]
IC50 ([1]; values in nM): 431 nM
IC50 ([2]; values in nM): 488 nM

SMILES: C[C@H]1C[C@@H](c2ncc(-c3ccc(N)nc3F)[nH]2)n2c1cc(-c1c(-n3cnnn3)ccc(Cl)c1F)cc2=O [Example 67, (1S,3S)-3-(5-(6-Amino-2-fluoropyridin-3-yl)-1H-imidazol-2-yl)-7-(3-chloro-2-fluoro-6-(1H-tetrazol-1-yl)phenyl)-1-methyl-2,3-dihydroindolizin-5(1H)-one]
IC50 ([1]; values in nM): 0.4 nM
IC50 ([2]; values in nM): 20.6 nM

SMILES: C[C@H]1C[C@@H](c2ncc(-c3sc(N)nc3C(F)(F)F)[nH]2)n2c1cc(-c1c(-n3cnnn3)ccc(Cl)c1F)cc2=O [Example 27, (1S,3S)-3-(5-(2-Amino-4-(trifluoromethyl)thiazol-5-yl)-1H-imidazol-2-yl)-7-(3-chloro-2-fluoro-6-(1H-tetrazol-1-yl)phenyl)-1-methyl-2,3-dihydroindolizin-5(1H)-one]
IC50 ([1]; values in nM): 483 nM
IC50 ([2]; unit μM): 2400 nM

SMILES: CC(=O)Nc1ncc(-c2cnc(C3CC4(CC4)c4cc(-c5c(-n6cnnn6)ccc(Cl)c5F)cc(=O)n43)[nH]2)s1 (stereo not drawn) [Example 22]
IC50 ([1]; values in nM): 253 nM
IC50 ([2]; values in nM): 294 nM

SMILES: Cc1cc(-c2cnc([C@@H]3C[C@@H](C)c4cc(-c5c(-n6cnnn6)ccc(Cl)c5F)cc(=O)n43)[nH]2)ccn1 (stereo in doubt) [Example 41, (1*R,3*S)-7-(3-Chloro-2-fluoro-6-(1H-tetrazol-1-yl)phenyl)-1-methyl-3-(5-(2-methylpyridin-4-yl)-1H-imidazol-2-yl)-2,3-dihydroindolizin-5(1H)-one]
IC50 ([1]; values in nM): 346 nM
IC50 ([2]; unit μM): 2200 nM
